Data as given in PubChem BioAssay (NCI).
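Tested at 5 concentrations; 48 h exposure; 96-well plates; endpoints linearly interpolated, else capped at highest concentration. GI50 = concentration required for 50% inhibition of growth. TGI: concentration producing complete growth inhibition.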

Experiments:
Test in all cases: NCI tumour cell line growth inhibition, 48 h
NCI/ADR-RES ovarian = system: NCI/ADR-RES ovarian
SN12C renal = system: SN12C renal
OVCAR-8 ovarian = system: OVCAR-8 ovarian
A549 NSCLC = system: A549 NSCLC
K-562 leukemia = system: K-562 leukemia
A498 renal = system: A498 renal
TK-10 renal = system: TK-10 renal
SK-MEL-28 melanoma = system: SK-MEL-28 melanoma
BT-549 breast = system: BT-549 breast
NCI-H226 lung = system: NCI-H226 lung
MDA-MB-231 breast = system: MDA-MB-231 breast
SNB-19 CNS = system: SNB-19 CNS
786-0 renal = system: 786-0 renal
IGROV1 ovarian = system: IGROV1 ovarian
M14 melanoma = system: M14 melanoma
HCT-116 colon = system: HCT-116 colon
LOX IMVI melanoma = system: LOX IMVI melanoma
T-47D breast = system: T-47D breast
SNB-75 CNS = system: SNB-75 CNS
UACC-62 melanoma = system: UACC-62 melanoma
CAKI-1 renal = system: CAKI-1 renal
UACC-257 melanoma = system: UACC-257 melanoma
SK-MEL-2 melanoma = system: SK-MEL-2 melanoma
MOLT-4 leukemia = system: MOLT-4 leukemia
SW-620 colon = system: SW-620 colon
SF-539 CNS = system: SF-539 CNS
SK-OV-3 ovarian = system: SK-OV-3 ovarian
MDA-MB-435 = system: MDA-MB-435
HL-60(TB) leukemia = system: HL-60(TB) leukemia
HT29 colon = system: HT29 colon
NCI-H460 lung = system: NCI-H460 lung
SF-295 CNS = system: SF-295 CNS
HS 578T breast = system: HS 578T breast
SR leukemia = system: SR leukemia
DU-145 prostate = system: DU-145 prostate
CCRF-CEM leukemia = system: CCRF-CEM leukemia
U251 CNS = system: U251 CNS
MALME-3M melanoma = system: MALME-3M melanoma
MCF7 breast = system: MCF7 breast
EKVX NSCLC = system: EKVX NSCLC
UO-31 renal = system: UO-31 renal
SF-268 CNS = system: SF-268 CNS
OVCAR-3 ovarian = system: OVCAR-3 ovarian
SK-MEL-5 melanoma = system: SK-MEL-5 melanoma
RXF 393 renal = system: RXF 393 renal
HCT-15 colon = system: HCT-15 colon
OVCAR-4 ovarian = system: OVCAR-4 ovarian
COLO 205 colon = system: COLO 205 colon
ACHN renal = system: ACHN renal
PC-3 prostate = system: PC-3 prostate
HCC-2998 colon = system: HCC-2998 colon
HOP-62 NSCLC = system: HOP-62 NSCLC
NCI-H522 lung = system: NCI-H522 lung
KM12 colon = system: KM12 colon
NCI-H23 lung = system: NCI-H23 lung
OVCAR-5 ovarian = system: OVCAR-5 ovarian
HOP-92 NSCLC = system: HOP-92 NSCLC
RPMI-8226 leukemia = system: RPMI-8226 leukemia

NC(CCl)=NCC12CC3CC(CC(C3)C1)C2
GI50 (NCI/ADR-RES ovarian): 0.625 µM | TGI (NCI/ADR-RES ovarian): 14.4 µM | GI50 (SN12C renal): 1.56 µM | TGI (SN12C renal): 15.7 µM | GI50 (OVCAR-8 ovarian): 0.877 µM | TGI (OVCAR-8 ovarian): 19.4 µM | GI50 (A549 NSCLC): 0.792 µM | TGI (A549 NSCLC): 15.7 µM | GI50 (K-562 leukemia): 0.5 µM | TGI (K-562 leukemia): 5.21 µM | GI50 (A498 renal): 1.37 µM | TGI (A498 renal): 13.4 µM | GI50 (TK-10 renal): 1.31 µM | TGI (TK-10 renal): 9.14 µM | GI50 (SK-MEL-28 melanoma): 1.58 µM | TGI (SK-MEL-28 melanoma): 15.5 µM | GI50 (BT-549 breast): 2.43 µM | TGI (BT-549 breast): 14.2 µM | GI50 (NCI-H226 lung): 1.43 µM | TGI (NCI-H226 lung): 11.3 µM | GI50 (MDA-MB-231 breast): 1.75 µM | TGI (MDA-MB-231 breast): 11.3 µM | GI50 (SNB-19 CNS): 10 µM | TGI (SNB-19 CNS): 23 µM | GI50 (786-0 renal): 0.966 µM | TGI (786-0 renal): 13.2 µM | GI50 (IGROV1 ovarian): 0.525 µM | TGI (IGROV1 ovarian): 31.7 µM | GI50 (M14 melanoma): 1.32 µM | TGI (M14 melanoma): 4.39 µM | GI50 (HCT-116 colon): 0.41 µM | TGI (HCT-116 colon): 2.56 µM | GI50 (LOX IMVI melanoma): 0.805 µM | TGI (LOX IMVI melanoma): 2.67 µM | GI50 (T-47D breast): 1.2 µM | TGI (T-47D breast): 20.1 µM | GI50 (SNB-75 CNS): 2.21 µM | TGI (SNB-75 CNS): 15.4 µM | GI50 (UACC-62 melanoma): 0.918 µM | TGI (UACC-62 melanoma): 4.08 µM | GI50 (CAKI-1 renal): 0.426 µM | TGI (CAKI-1 renal): 2.48 µM | GI50 (UACC-257 melanoma): 1.75 µM | TGI (UACC-257 melanoma): 5.27 µM | GI50 (SK-MEL-2 melanoma): 2.06 µM | TGI (SK-MEL-2 melanoma): 7.46 µM | GI50 (MOLT-4 leukemia): 0.333 µM | TGI (MOLT-4 leukemia): 1.73 µM | GI50 (SW-620 colon): 0.338 µM | TGI (SW-620 colon): 4.37 µM | GI50 (SF-539 CNS): 0.702 µM | TGI (SF-539 CNS): 11.2 µM | GI50 (SK-OV-3 ovarian): 4.1 µM | TGI (SK-OV-3 ovarian): 16.7 µM | GI50 (MDA-MB-435): 0.474 µM | TGI (MDA-MB-435): 7.11 µM | GI50 (HL-60(TB) leukemia): 1.06 µM | TGI (HL-60(TB) leukemia): 3.78 µM | GI50 (HT29 colon): 0.458 µM | TGI (HT29 colon): 2.93 µM | GI50 (NCI-H460 lung): 0.44 µM | TGI (NCI-H460 lung): 4.6 µM | GI50 (SF-295 CNS): 2.29 µM | TGI (SF-295 CNS): 16.2 µM | GI50 (HS 578T breast): 4.47 µM | TGI (HS 578T breast): 42.1 µM | GI50 (SR leukemia): 0.116 µM | TGI (SR leukemia): 0.706 µM | GI50 (DU-145 prostate): 0.608 µM | TGI (DU-145 prostate): 3.75 µM | GI50 (CCRF-CEM leukemia): 0.348 µM | TGI (CCRF-CEM leukemia): 3.27 µM | GI50 (U251 CNS): 1.38 µM | TGI (U251 CNS): 12.1 µM | GI50 (MALME-3M melanoma): 6.32 µM | TGI (MALME-3M melanoma): 27.3 µM | GI50 (MCF7 breast): 0.557 µM | TGI (MCF7 breast): 6.9 µM | GI50 (EKVX NSCLC): 2.23 µM | TGI (EKVX NSCLC): 21.1 µM | GI50 (UO-31 renal): 0.74 µM | TGI (UO-31 renal): 15.8 µM | GI50 (SF-268 CNS): 1.9 µM | TGI (SF-268 CNS): 12.1 µM | GI50 (OVCAR-3 ovarian): 0.687 µM | TGI (OVCAR-3 ovarian): 7.23 µM | GI50 (SK-MEL-5 melanoma): 0.973 µM | TGI (SK-MEL-5 melanoma): 3.79 µM | GI50 (RXF 393 renal): 0.44 µM | TGI (RXF 393 renal): 5.4 µM | GI50 (HCT-15 colon): 0.807 µM | TGI (HCT-15 colon): 13.7 µM | GI50 (OVCAR-4 ovarian): 1.87 µM | TGI (OVCAR-4 ovarian): 17.4 µM | GI50 (COLO 205 colon): 1.15 µM | TGI (COLO 205 colon): 3.19 µM | GI50 (ACHN renal): 0.567 µM | TGI (ACHN renal): 11.6 µM | GI50 (PC-3 prostate): 2.05 µM | TGI (PC-3 prostate): 13.3 µM | GI50 (HCC-2998 colon): 1.65 µM | TGI (HCC-2998 colon): 7.84 µM | GI50 (HOP-62 NSCLC): 0.796 µM | TGI (HOP-62 NSCLC): 11.4 µM | GI50 (NCI-H522 lung): 0.391 µM | TGI (NCI-H522 lung): 2.19 µM | GI50 (KM12 colon): 0.96 µM | TGI (KM12 colon): 3.47 µM | GI50 (NCI-H23 lung): 0.678 µM | TGI (NCI-H23 lung): 4.17 µM | GI50 (OVCAR-5 ovarian): 3.73 µM | TGI (OVCAR-5 ovarian): 11.1 µM

Brc1ccc2nc(-c3cccs3)nc(N3CCN(c4ccccc4)CC3)c2c1
TGI (NCI/ADR-RES ovarian): > 100 µM | TGI (SN12C renal): > 100 µM | TGI (OVCAR-8 ovarian): > 100 µM | TGI (A549 NSCLC): > 100 µM | TGI (K-562 leukemia): > 100 µM | TGI (A498 renal): > 100 µM | TGI (TK-10 renal): > 100 µM | TGI (SK-MEL-28 melanoma): > 100 µM | TGI (BT-549 breast): > 100 µM | TGI (NCI-H226 lung): > 100 µM | TGI (MDA-MB-231 breast): > 100 µM | TGI (SNB-19 CNS): > 100 µM | TGI (786-0 renal): > 100 µM | TGI (IGROV1 ovarian): > 100 µM | TGI (M14 melanoma): > 100 µM | TGI (HCT-116 colon): > 100 µM | TGI (LOX IMVI melanoma): > 100 µM | TGI (T-47D breast): > 100 µM | TGI (SNB-75 CNS): > 100 µM | TGI (UACC-62 melanoma): > 100 µM | TGI (CAKI-1 renal): > 100 µM | TGI (UACC-257 melanoma): > 100 µM | TGI (SK-MEL-2 melanoma): > 100 µM | TGI (SW-620 colon): > 100 µM | TGI (SF-539 CNS): > 100 µM | TGI (SK-OV-3 ovarian): > 100 µM | TGI (MDA-MB-435): > 100 µM | TGI (HL-60(TB) leukemia): > 100 µM | TGI (HT29 colon): > 100 µM | TGI (NCI-H460 lung): > 100 µM | TGI (SF-295 CNS): > 100 µM | TGI (HS 578T breast): > 100 µM | TGI (HOP-92 NSCLC): > 100 µM | TGI (SR leukemia): > 100 µM | TGI (DU-145 prostate): > 100 µM | TGI (U251 CNS): > 100 µM | TGI (MALME-3M melanoma): > 100 µM | TGI (MCF7 breast): > 100 µM | TGI (EKVX NSCLC): > 100 µM | TGI (UO-31 renal): > 100 µM | TGI (SF-268 CNS): > 100 µM | TGI (OVCAR-3 ovarian): > 100 µM | TGI (SK-MEL-5 melanoma): > 100 µM | TGI (HCT-15 colon): > 100 µM | TGI (RPMI-8226 leukemia): > 100 µM | TGI (OVCAR-4 ovarian): > 100 µM | TGI (COLO 205 colon): > 100 µM | TGI (ACHN renal): > 100 µM | TGI (PC-3 prostate): > 100 µM | TGI (HCC-2998 colon): > 100 µM | TGI (HOP-62 NSCLC): > 100 µM | TGI (NCI-H522 lung): > 100 µM | TGI (KM12 colon): > 100 µM | TGI (NCI-H23 lung): > 100 µM | TGI (OVCAR-5 ovarian): > 100 µM
